ChEMBL document CHEMBL3244023, “A structure-carcinogenicity study of 4-nitroquinoline 1-oxides using the SIMCA method of pattern recognition” (J Med Chem, 1978)

How the values were obtained:
[1] = Lipophilicy, log P of the compound; assay type: physicochemical; conditions: octanol/water
Mus musculus = assay: Carcinogenicity in mouse assessed as tumor development administered sc in left groin 6 times at 10-day interval; assay type: toxicity, organism-based; conditions: in vivo

For `CC(C)(C)c1ccc2c(c1)c(NO)cc[n+]2[O-]`, the logP [1] was 2.05 and the Activity (Mus musculus) was “Non-toxic”.
For `CCCCc1ccc2c(c1)c([N+](=O)[O-])cc[n+]2[O-]`, the logP [1] was 3.11 and the Activity (Mus musculus) was “Toxic”.
For `O=[N+]([O-])c1cc[n+]([O-])c2ccccc12` [4-NITROQUINOLINE-1-OXIDE], the logP [1] was 1.01 and the Activity (Mus musculus) was “Toxic”.
In the case of `O=[N+]([O-])c1ccc2c(c1)c(NO)cc[n+]2[O-]`, the logP [1] is reported as -0.28 and the Activity (Mus musculus) is reported as “Toxic”.
Work on `CC(C)(C)c1ccc2c(c1)c([N+](=O)[O-])cc[n+]2[O-]` yielded a logP [1] of 3.06.
Work on `CCc1c(C)c([N+](=O)[O-])c2ccccc2[n+]1[O-]` yielded a logP [1] of 2.56.
`O=[N+]([O-])c1ccc2c(c1)c([N+](=O)[O-])cc[n+]2[O-]` showed a logP [1] of 0.9.
In the case of `O=[N+]([O-])c1c(F)c[n+]([O-])c2ccccc12`, the logP [1] is reported as 1.25.
In the case of `Cc1c[n+]([O-])c2ccccc2c1[N+](=O)[O-]`, the logP [1] is reported as 1.24.
Compound `O=[N+]([O-])c1c(Cl)c[n+]([O-])c2ccccc12` has a logP [1] of 1.33.
Compound `O=[N+]([O-])c1cccc2c1c([N+](=O)[O-])cc[n+]2[O-]` has a logP [1] of 0.95.
For `O=[N+]([O-])c1c(Br)c[n+]([O-])c2ccccc12`, the logP [1] was 1.99 and the Activity (Mus musculus) was “Toxic”.
With `Cc1ccc2c([N+](=O)[O-])cc[n+]([O-])c2c1` the logP [1] was 1.49 and the Activity (Mus musculus) was “Toxic”.
For `O=[N+]([O-])c1cc[n+]([O-])c2c([N+](=O)[O-])cccc12`, the logP [1] was 0.76 and the Activity (Mus musculus) was “Non-toxic”.
For `Cc1ccc2c(c1)c([N+](=O)[O-])cc[n+]2[O-]`, the logP [1] was 1.24 and the Activity (Mus musculus) was “Toxic”.
With `[O-][n+]1ccc(NO)c2cc(C3CCCCC3)ccc21` the logP [1] was 2.89 and the Activity (Mus musculus) was “Non-toxic”.
In the case of `CC(C)(C)c1cc([N+](=O)[O-])c2ccccc2[n+]1[O-]`, the logP [1] is reported as 1.07.
In the case of `CCCCc1ccc2c(c1)c(NO)cc[n+]2[O-]`, the logP [1] is reported as 2.1 and the Activity (Mus musculus) is reported as “Toxic”.
In the case of `O=[N+]([O-])c1cc[n+]([O-])c2c(F)cccc12`, the logP [1] is reported as 1.
With `O=[N+]([O-])c1cc[n+]([O-])c2ccc(Cl)cc12` the logP [1] was 1.4 and the Activity (Mus musculus) was “Toxic”.
For `O=[N+]([O-])c1cc[n+]([O-])c2cc(Cl)ccc12`, the logP [1] was 1.75 and the Activity (Mus musculus) was “Toxic”.
Compound `O=C(O)c1ccc2c(c1)c([N+](=O)[O-])cc[n+]2[O-]` has a logP [1] of 0.42.
For `CCCCCCc1ccc2c(c1)c([N+](=O)[O-])cc[n+]2[O-]`, the logP [1] was 3.26 and the Activity (Mus musculus) was “Non-toxic”.
In the case of `Cc1cccc2c1c([N+](=O)[O-])cc[n+]2[O-]`, the logP [1] is reported as 1.25 and the Activity (Mus musculus) is reported as “Toxic”.
In the case of `COc1c[n+]([O-])c2ccccc2c1[N+](=O)[O-]`, the logP [1] is reported as 0.43 and the Activity (Mus musculus) is reported as “Non-toxic”.
With `O=[N+]([O-])c1cc[n+]([O-])c2cccc(Cl)c12` the logP [1] was 1.75 and the Activity (Mus musculus) was “Toxic”.
With `O=[N+]([O-])c1cc[n+]([O-])c2cc(Cl)c(Cl)cc12` the logP [1] was 2.49 and the Activity (Mus musculus) was “Toxic”.
With `Cc1cccc2c([N+](=O)[O-])cc[n+]([O-])c12` the logP [1] was 1.48 and the Activity (Mus musculus) was “Toxic”.
For `CCc1cc([N+](=O)[O-])c2ccccc2[n+]1[O-]`, the logP [1] was 1.76 and the Activity (Mus musculus) was “Toxic”.
For `CCCCCCc1ccc2c(c1)c(NO)cc[n+]2[O-]`, the logP [1] was 3.35 and the Activity (Mus musculus) was “Non-toxic”.
With `O=[N+]([O-])c1ccc2c([N+](=O)[O-])cc[n+]([O-])c2c1` the logP [1] was 0.45 and the Activity (Mus musculus) was “Non-toxic”.
In the case of `O=[N+]([O-])c1cc[n+]([O-])c2ccc(C3CCCCC3)cc12`, the logP [1] is reported as 2.8 and the Activity (Mus musculus) is reported as “Non-toxic”.
In the case of `Cc1cc([N+](=O)[O-])c2ccccc2[n+]1[O-]`, the logP [1] is reported as 1.25 and the Activity (Mus musculus) is reported as “Toxic”.
